Publication PMC6733959, “Synthesis and Evaluations of Novel Apocynin Derivatives as Anti-Glioma Agents” (Frontiers in Pharmacology, 2019)

Experiments:
ROS levels in C6 cells = assay: Intracellular ROS levels (DCF, flow cytometry), C6 cells; assay type: cell-based, rat; details: 20 and 50 μM, 48 h, P < 0.05
Protocol: Intracellular reactive oxygen species (ROS) levels were detected using Reactive Oxygen Species Assay Kit (Jiancheng Bioengineering, Nanjing, China) as per the manufacturer’s instruction. Brieﬂy, after treatment with indicated concentrations of test compound (20, 50 μM) for 48 h, the cells were incubated in 1 ml 2,7-dichloroﬂuorescin diacetate working solution (100 μM) for 30 min at 37°C in the dark, and washed with PBS. Then ﬂuorescence intensities of intracellular DCF were detected using a FACS Calibur ﬂow cytometer (Becton-Dickinson, San Jose, CA, USA). H2O2 treatment group was used as the positive control group.

rat BMECs = assay: Cytotoxicity of apocynin derivatives on rat BMECs (MTT, 24 h); assay type: cell-based; details: 100 μM, vs control, P < 0.05
Protocol: Rat brain microvascular endothelial cells (BMECs) were separated from the cerebral cortex of 18-day-old male Sprague-Dawley rats as described previously ([Biegel et al., 1995]). Briefly, the cerebral cortical tissues were dissected from meninges after the rats were sacrificed, then the tissues were homogenated in physiological buffer solution (pH 7.4). After centrifugation, the pellets were collected, and the microvascular segments were then digested with 0.1% collagenase II at 37°C for 1 h. […] The second passage was used for co-culture of BBB cellular models.
Rat BMECs were collected and seeded into 96-well culture plates at a density of 7.5 × 10^3 cells/well overnight. The cells were treated with different concentrations of the compounds (10, 20, and 100 μM) for 24 h, respectively. Then, 20-μl MTT (5 mg/ml) in fresh medium was added to each well and incubated for another 4 h. Finally, 150μl dimethyl sulfoxide (DMSO) was added to dissolve formazan crystals, and the absorbance was detected at 490 nm in a multiwall-plate reader (BioTek ELx800).

rat C6 glioma cells = assay: Anti-glioma MTT assay, C6 cells; assay type: cell-based; details: for IC50: Rattus norvegicus, C6 cells
Protocol: (§1) The anti-glioma effects of these compounds were evaluated by MTT assay in rat C6 glioma cells, human glioma U87 and U251 cells, and BMECs cells. Brieﬂy, cells were seeded at the density of 4,000 cells/well in 96-well plates overnight. For the first screening, the cells were incubated with 10, 20, 100 μM compounds for 48 h. Then cell viabilities were detected by MTT assay as described above. For the second screening, the cells were incubated with 6.25-, 12.5-, 25-, 50-, and 100μM compounds for 48 and 96 h, and then detected by MTT assay. The OD of each well was measured at 490 nm on an ELISA microplate reader. The inhibitory rates and IC50 values were calculated.

C6 glioma = assay: Rat C6 glioma model; assay type: in vivo; details: C6 glioma-bearing Wistar rats, 25 mg/kg i.p. daily
Protocol: C6 glioma model was established as previously reported ([Xu etal., 2016]). The C6 glioma cells in the logarithmic growth phase were collected for implantation. Male Wistar rats (male, 160–180g) were anesthetized with 10% chloral hydrate, and then a hole (1 mm diameter) was drilled in the cranial bone. C6 cells in PBS were injected slowly (3 × 10^6 cells/rat).
Tumors in the brains of the rats were detected by Bruker 7.0 T Micro-MRI using a T2W RARE sequence (TR/TE 3000/15 ms; slice thickness, 1.0 mm; flip angle, 180°; Matrix 256×256; slice gap, 1.0 mm; FOV, 33×33 mm; time, 4.8 min) 7 days after implantation. Tumor volumes (V) were calculated by the following formula: V = (4/3 × π × LHW)/8, where L is the maximum anteroposterior diameter, H and W are the height and width. Then the rats were sacrificed, and the brain tissues were fixed with formalin, embedded in paraffin, sectioned, and subjected to hematoxylin/eosin (HE) staining and immunohistochemical staining for glial fibrillary acidic protein (GFAP) as previously described ([Xu et al., 2016]). The sections from each animal were analyzed by a pathologist. Only rats with maximum intracerebral tumor diameter of >5.0 mm were used.
After the successful implantation, the rats were randomly divided into […] and treated with different drugs by intraperitoneal injection daily: control group (PBS, n = 6), TMZ group (25 mg/kg, n = 6), D14 group (25 mg/kg, n = 6), and D31 group (25 mg/kg, n = 6). The body weights were recorded everyday after administration. Thirteen days after treatment, brain tumors in the rats were detected by Bruker 7.0 T Micro-MRI as described above. Tumor volumes were calculated and recorded as above.

NADPH oxidase (NOX) = assay: NOX activity determination, C6 cells; assay type: cell-based, rat; details: 20 and 50 μM
Protocol: The effects of candidate drug on NOX activities were measured using cytochrome c reductase (NADPH) Assay Kit (Sigma-Aldrich, St. Louis, MO, USA). Brieﬂy, after the compound treatment (20, 50 μM), the cells were collected and homogenized in an isotonic buffer ([…]), and centrifuged at 1,000 g to obtain the post-nuclear supernatants. Then 50μl samples were added to 950μl working solution (at 25°C) in a 1ml cuvette and mixed by inversion. Then 20μl cytochrome c oxidase inhibitor solution was added. After reaction with 100 μl NADPH solution, the cytochrome c absorbance was monitored at 550 nm by a spectrophotometer.

U87 cells = assay: Apoptosis by Annexin V-FITC/PI staining, U87 cells; assay type: cell-based, human; details: 48 h, mean ± SD
Protocol: The effects of test compound on apoptosis were detected by Annexin V-FITC/PI staining. Briefly, after treatment with indicated concentrations of test compounds (20, 50 μM) for 48 h, the cells were collected and resuspended in 500-μl detection buffer. Then 5μl PI and 5μl Annexin V-FITC were added to the detection buffer. Then, cells were incubated for 15 min in the dark and analyzed using Flow cytometer (Becton Dickinson) and WinMDI 2.8 software (Scripps Institute, La Jolla, CA, USA).

human glioma U87 cells = assay: Anti-glioma MTT assay, U87 cells; assay type: cell-based; details: for IC50: Homo sapiens, U-87 MG, U87 cells
Protocol: as §1

[1] = test system: NF-κB pathway-related proteins; assay: Western blot of NF-κB pathway-related proteins, C6 cells; assay type: cell-based, rat; details: 20 and 50 μM, 48 h
Protocol: Briefly, after treatment with indicated concentrations of test compound (20, 50 μM) for 48 h, the cells were collected, and total cell lysates and nucleus fractions were extracted. Twenty micrograms of cellular protein were subjected to electrophoresis on 12% SDS-polyacrylamide gels and then transferred to polyvinylidene difluoride membranes. The membranes were first incubated with 5% BSA for 2 h at 37°C and then incubated with the first antibodies overnight at 4°C. After HRP-labeled secondary antibodies (1:1,000-dilution) incubation, protein bands were visualized with the enhanced chemiluminescence (ECL) detection solution. The intensity of bands was quantified using ImageJ 1.43 software (National Institutes of Health, Bethesda, MD, USA).

[2] = 10, 20, 100 μM, 48 h, compared with D1, P < 0.05

- IC50 (rat C6 glioma cells; 48 h): 35.1 µM
- IC50 (rat C6 glioma cells; 96 h): 25.4 µM
- IC50 (human glioma U87 cells; 48 h): 23.5 µM
- IC50 (human glioma U87 cells; 96 h): 21.5 µM
Structure (SMILES): COc1cc(C(=O)CSCc2ccccc2Cl)ccc1O [Compound D31, 2-((2-Chlorobenzyl)thio)-1-(4-Hydroxy-3-Methoxyphenyl)Ethan-1-One]
- Fluorescence intensity of DCF (ROS generation) vs control (ROS levels in C6 cells): significant increases
- Effect on cell viability of rat BMECs (rat BMECs): significantly inhibit the cell viability
- Anti-proliferation effect on C6 cells (first screening) (rat C6 glioma cells; [2]): significant anti-proliferation effects
- Body weight changes vs control group (C6 glioma): no obvious body weight changes
- Tumor volume vs control group (C6 glioma; MRI 13 days after treatment): significantly decreased
- Effect on NOX activities vs control (NADPH oxidase (NOX)): no obvious effects
- Apoptotic cell rate (U87 cells; 20 μM): 16.7 ± 3.1%
- Apoptotic cell rate (U87 cells; 50 μM): 29.7 ± 4.7%
- Anti-proliferation effect on U87 cells (first screening) (human glioma U87 cells; [2]): significant anti-proliferation effects
- IκBα expression [1]: obviously decreased
- nucleus p-NF-κB p65 expression [1]: obviously increased
- p-IKKα/β expression [1]: obviously increased
